Experimental data from ChEMBL document CHEMBL3430912, “GSK Tres Cantos Anti-Kinetoplastid Screening (TCAKS) Data”.

How the values were obtained:
Trypanosoma cruzi [1] = test: GSK_TCAKS: pIC50 Trypanosoma cruzi viability assay using beta-GAL activity. This assay was run at single shot at 5uM compound concentration per well. The biological reagents consisted of NIH-3T3 host cells and trypomastigotes parasitic cells; both cell types were set to a 3.3 * 10^5 cells/mL dilution in assay DMEM by means of a CASY cell counter device using a 60um capillary. 6 uL of the mixture were dispensed per well (about 1 * 10^3 host-cells and 1 * 10^3 parasites) with a Multidrop Combi dispenser. […] In all wells, the percentage of DMSO never exceeded 0.5%. Plates incubated for four days at 37C, 5% CO2. The substrate used for the assay fluorescence intensity (FLINT) readout was resorufin-beta-D-galactopiranoside (Sigma-Aldrich) at 5uM per well. It was diluted in PBS supplemented with the soft detergent Igepal (Fluka).; format: functional, organism-based, Mus musculus; conditions: Tulahuen, NIH3T3
Trypanosoma cruzi [2] = test: (§1) GSK_TCAKS: pIC50 Trypanosoma cruzi Imaging: Infected Cells. […] Cells were then washed once with PBS before infection. T. cruzi trypomastigotes, collected at days 5 to 8 after infection from LLC-MK2 parasite infected cultures, were allowed to swim out for 4h at 37C from a centrifuged pellet (2,500 rpm/10 min/room temperature). Trypomastigotes were then collected and counted in a CASY Cell Counter. Trypomastigotes, in supplemented DMEM, were added to H9c2 cultures in a multiplicity of infection of 1 and incubated for 18 h. Cells were washed once with PBS before incubation of the infected H9c2 monolayer with trypsin (Life-Technologies) to detach cells from the flask. Cells were counted in a CASY Cell Counter using a 150 um capillary and their density set at 5 * 10^4 cells per mL in supplemented assay DMEM. Infected H9c2 were dispensed into 384-well poly-lysine coated assay plates at 50uL per well using a Multidrop Combi dispenser. After seeding them, the plates were incubated at 37C, 5% CO2 for 72h. Cultures were then fixed and stained by addition of 50 uL of a solution containing 8% formaldehyde and 4 uM DRAQ5 DNA dye (BioStatus, UK) per well. […] Five images were collected per well for reliable statistical analysis. Automated image analysis was performed with a script developed on Acapella High Content Imaging and Analysis Software (PerkinElmer). Output: percentage of infected cells per well as a second infection marker.; format: functional, organism-based, Rattus norvegicus; conditions: H9c2, 4 h
Trypanosoma cruzi [3] = test: GSK_TCAKS: pIC50 Trypanosoma cruzi Imaging: Amastigotes/Cell. […] Cells were then washed once with PBS before infection. T. cruzi trypomastigotes, collected at days 5 to 8 after infection from LLC-MK2 parasite infected cultures, were allowed to swim out for 4h at 37C from a centrifuged pellet (2,500 rpm/10 min/room temperature). Trypomastigotes were then collected and counted in a CASY Cell Counter. Trypomastigotes, in supplemented DMEM, were added to H9c2 cultures in a multiplicity of infection of 1 and incubated for 18 h. Cells were washed once with PBS before incubation of the infected H9c2 monolayer with trypsin (Life-Technologies) to detach cells from the flask. Cells were counted in a CASY Cell Counter using a 150 um capillary and their density set at 5 * 10^4 cells per mL in supplemented assay DMEM. Infected H9c2 were dispensed into 384-well poly-lysine coated assay plates at 50uL per well using a Multidrop Combi dispenser. After seeding them, the plates were incubated at 37C, 5% CO2 for 72h. Cultures were then fixed and stained by addition of 50 uL of a solution containing 8% formaldehyde and 4 uM DRAQ5 DNA dye (BioStatus, UK) per well. […] Five images were collected per well for reliable statistical analysis. Automated image analysis was performed with a script developed on Acapella High Content Imaging and Analysis Software (PerkinElmer). Output: number of amastigotes per cell as infection level measurement.; format: functional, organism-based, Rattus norvegicus; conditions: H9c2, 4 h
Trypanosoma cruzi [4] = test: as §1, with “H2C9” for “Trypanosoma cruzi”, “H9c2 Host Cardiomyocytes.” for “Infected Cells.”, “Number” for “percentage”, “H9c2 Host Cardiomyocytes nuclei to determine drug-related cytotoxicity.” for “infected cells per well as a second infection marker.”; format: functional, organism-based, Rattus norvegicus; conditions: H9c2, 4 h
Leishmania donovani [5] = test: GSK_TCAKS: pIC50 Leishmania donovani viability assay using fluorescence intensity. Assay plates (1536-well) were prepared by adding 30nL per well of compound. For single shot assay, the final compound concentration was 5uM. […] Briefly, eGFP LdBOB axenic amastigotes were harvested, fixed and counted in a CASY cell counter (Roche-Applied Science). A final concentration of 1.5 * 10^5 cells per well were prepared in amastigote media containing 500 U/mL penicillin/streptomycin (Invitrogen) and 6uL was dispensed to each experimental well using a Multidrop Combi dispenser (Thermo Scientific). 6uL of assay media was dispensed to control columns used as reference for 100% compound response. Following incubation for 72 h at 37C, 5% CO2, 2 uL of resazurin was added to each well at a final concentration of 0.5 mM in phosphate buffered saline (PBS) with IGEPAL (Sigma-Aldrich), 0.05% (v/v).; format: functional, organism-based
Leishmania donovani [6] = test: GSK_TCAKS: pIC50 Leishmania donovani Imaging: Infected Macrophages. Assay plates (384-well) were prepared by adding 250nL of compound to each well. For single shot assay, the final compound concentration was 5 uM. […] Automated image analysis was performed with a script developed on Acapella High Content Imaging and Analysis Software (PerkinElmer). Output: Percent of infected macrophage cells were reported for each well.; format: functional, organism-based, Homo sapiens; conditions: THP-1
Leishmania donovani [7] = test: GSK_TCAKS: pIC50 Leishmania donovani Imaging: Amastigotes/Macrophages. Assay plates (384-well) were prepared by adding 250nL of compound to each well. For single shot assay, the final compound concentration was 5 uM. […] Automated image analysis was performed with a script developed on Acapella High Content Imaging and Analysis Software (PerkinElmer). Output: Average number of amastigotes per macrophage cell were reported for each well.; format: functional, organism-based, Homo sapiens; conditions: THP-1
Leishmania donovani [8] = test: GSK_TCAKS: pIC50 Leishmania donovani Imaging: THP-1 Host Macrophages. Assay plates (384-well) were prepared by adding 250nL of compound to each well. For single shot assay, the final compound concentration was 5 uM. […] Automated image analysis was performed with a script developed on Acapella High Content Imaging and Analysis Software (PerkinElmer). Output: THP-1 cell count were reported for each well.; format: functional, organism-based, Homo sapiens
[9] = test system: Trypanosoma brucei brucei; test: GSK_TCAKS: pIC50 Trypanosoma brucei viability assay using fluorescence intensity. Assay plates (1536-well) were prepared by dispensing 25nL of compound solution per well using an Echo acoustic dispenser (Labcyte).; format: functional, organism-based; conditions: Lister 427, 2 h
[10] = test system: Trypanosoma brucei brucei; test: GSK_TCAKS: pIC50 Trypanosoma brucei viability assay using luminiscence. Assay plates (1536-well) were prepared. T. brucei cultures were harvested and counted in a CASY cell counter. A parasite suspension was prepared at a final concentration of 5 * 10^4 cells/mL in complete HMI9 medium and 6uL was dispensed to all wells containing compounds using a Multidrop Combi dispenser. 6uL of HMI9 media with 0.4% DMSO were dispensed to control columns. Plates were incubated for 24 h at 37C, 5% CO2 then tempered for 10 min at room temperature. ATP content was quantified by adding 4 uL of CellTiter-Glo Reagent (Promega) according to the manufacturer's instructions. Luminescence was measured using a ViewLux.; format: functional, organism-based; conditions: Lister 427, CASY
[11] = GSK_TCAKS: pIC50 HepG2 human cell line viability assay using luminiscence. […] Seeding density was checked to ensure that new mono-layers were not more than 50% confluent at the time of harvesting. Cell suspension was added to 500 mL of the same medium at a final density of 1.2 * 10^5 cells/mL. This cell suspension was dispensed (25 uL, 3000 cells per well) into 384-well clear-bottom plates using a Multidrop Combi dispenser. Prior to addition of the cell suspension, the screening compounds (250 nL) were pre-dispensed into the plates with an Echo liquid handler. Plates were incubated for 48 h at 37C, 5% CO2. After incubation, plates equilibrated at room temperature for 30 min before proceeding to develop the luminescent signal. The signal developer, CellTiter-Glo Reagent, was allowed to equilibrate at room temperature for 30 min and added to the plates (25uL per well) using a Multidrop Combi dispenser. Plates were left for 10 min at room temperature for stabilization and then read using a ViewLux.; format: toxicity, cell-based
[12] = target: Sterol 14-alpha demethylase (Trypanosoma cruzi (strain CL Brener), UniProt Q7Z1V1); test: GSK_TCAKS: pIC50 CYP51 from Trypanosoma cruzi.; format: functional
Sequence of Sterol 14-alpha demethylase (Q7Z1V1 whole entry): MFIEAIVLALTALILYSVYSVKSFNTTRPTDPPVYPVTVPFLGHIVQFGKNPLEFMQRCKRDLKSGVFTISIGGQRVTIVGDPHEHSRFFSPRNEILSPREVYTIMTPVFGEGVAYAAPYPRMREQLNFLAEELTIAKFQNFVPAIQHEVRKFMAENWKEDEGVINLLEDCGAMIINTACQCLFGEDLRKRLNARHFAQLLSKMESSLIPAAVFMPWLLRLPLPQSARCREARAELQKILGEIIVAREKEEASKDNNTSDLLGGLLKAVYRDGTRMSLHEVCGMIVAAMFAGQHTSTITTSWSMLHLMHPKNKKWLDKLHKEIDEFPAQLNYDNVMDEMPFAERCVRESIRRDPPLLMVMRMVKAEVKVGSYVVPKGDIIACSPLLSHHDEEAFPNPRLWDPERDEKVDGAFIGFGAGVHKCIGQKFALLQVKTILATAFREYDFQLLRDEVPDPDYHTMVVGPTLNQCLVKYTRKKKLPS

SMILES | IC50 (Trypanosoma cruzi [1]) [µM] | IC50 (Trypanosoma cruzi [2]) [µM] | IC50 (Trypanosoma cruzi [3]) [µM] | IC50 (Trypanosoma cruzi [4]) [µM] | IC50 (Leishmania donovani [5]) [µM] | IC50 (Leishmania donovani [6]) [µM] | IC50 (Leishmania donovani [7]) [µM] | IC50 (Leishmania donovani [8]) [µM] | IC50 [9] [µM] | IC50 [10] [µM] | IC50 at 48 h [11] [µM] | IC50 [12] [µM]
COc1ccc(CN2C(=O)C(O)(CC(=O)c3ccncc3)c3cc(Br)ccc32)cc1OC (configuration not stated) | 2.51 | 25.1 | 12.6 | 2 | 39.8 | 25.1 | 20 | 39.8 | 0.631 | 0.631 | 39.8 | 0.501
Cc1ccccc1CNC(=O)CN(Cc1ccccn1)Cc1ccccn1 | 5.01 | 15.8 | 6.31 | > 79.4 | 10 | 6.31 | 3.98 | > 79.4 | 6.31 | 20 | > 158 | 100
O=C(CN(Cc1ccccn1)Cc1ccccn1)NC1Cc2ccccc2C1 | 5.01 | 12.6 | 6.31 | > 79.4 | 12.6 | 5.01 | 5.01 | > 79.4 | 20 | 12.6 | > 158 | 79.4
CC(CCc1ccccc1)NC(=O)CN(Cc1ccccn1)Cc1ccccn1 (configuration not stated) | 2.51 | 10 | 3.16 | > 79.4 | 7.94 | 3.16 | 3.16 | 20 | 10 | 5.01 | > 158 | 63.1
O=C(CN(Cc1ccccn1)Cc1ccccn1)NCc1ccc2c(c1)OCO2 | 7.94 | 12.6 | 6.31 | > 79.4 | 12.6 | 7.94 | 6.31 | > 79.4 | 6.31 | 20 | > 158 | 100
O=C(CN(Cc1ccccn1)Cc1ccccn1)NCc1csc(-c2cccs2)n1 | 3.98 | 6.31 | 2.51 | > 50.1 | 12.6 | 6.31 | 3.16 | > 50.1 | 20 | 15.8 | > 100 | 39.8
Cc1nn(-c2ccccc2)nc1CNC(=O)CN(Cc1ccccn1)Cc1ccccn1 | 3.98 | 10 | 3.16 | > 63.1 | 7.94 | 5.01 | 5.01 | > 63.1 | 31.6 | 10 | > 126 | 25.1
O=C(CN(Cc1ccccn1)Cc1ccccn1)NCc1ccc(-c2csnn2)cc1 | 3.98 | 63.1 | 7.94 | > 79.4 | 7.94 | 5.01 | 5.01 | > 79.4 | 12.6 | 7.94 | 25.1 | 39.8
O=C(CSc1nnc(-c2ccc3c(c2)OCO3)o1)N(Cc1ccco1)CC(F)(F)F | 10 | 3.16 | 2.51 | > 50.1 | 15.8 | 7.94 | 3.16 | > 50.1 | > 39.8 | > 39.8 | > 100 | 25.1
N#Cc1ccccc1S(=O)(=O)N1CCN(C(=O)CNC(=O)c2ccc3c(c2)OCO3)CC1 | 15.8 | 1 | 0.631 | > 50.1 | 0.631 | 5.01 | 1.58 | > 50.1 | > 39.8 | > 39.8 | > 100 | 79.4
COc1ccc(NC(=O)c2ccc(NC(=O)CN(c3ccccc3C)S(C)(=O)=O)cc2)cc1 | 31.6 | 25.1 | 20 | 25.1 | > 50.1 | > 50.1 | 7.94 | > 50.1 | 0.2 | 0.794 | 39.8 | 6.31
